Ten compounds from ChEMBL document CHEMBL1201862, “PubChem BioAssay data set” (2004) can be followed below.

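Growth conditions: 96-well plates. Treatment: test compound, 48 hours, 5 concentrations. Analysis: linear interpolation between bracketing concentrations; unreached endpoints set to highest concentration. GI50 is the concentration that inhibits growth by half.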 Active and inactive are the calls of the source. Cut-off read from the data, not from the text of the source: active = GI50 up to about 1.1 µM and inactive = higher.

Holding throughout (assay): inhibition of tumour cell growth, NCI panel, 48 h
In assay [1] the test system is A549.
The subject of assay [2] is ACHN.
Assay [3] deals with HCT-116.
Assay [4] concerns K562.
Assay [5] deals with KM12.
The test system of assay [6] is LOX IMVI.
For assay [7], the system named is M14.
For assay [8], the system named is MDA-MB-231.
The test system of assay [9] is NCI-H226.
Assay [10] deals with RPMI-8226.
The test system of assay [11] is RXF 393.
The subject of assay [12] is SF-295.
The test system of assay [13] is SK-MEL-2.
Assay [14] concerns SK-OV-3.
Assay [15] relates to SNB-75.
Assay [16] concerns SR.
The test system of assay [17] is SW-620.
Assay [18] deals with T47D.
Assay [19] concerns U-251.
Assay [20] relates to UACC-257.

Take `CC1CC2OC(=O)C(C)C2CC2(C)C(OC3OC(CO)C(O)C(O)C3O)OCCC12` (stereo not given): the GI50 in [1], in assay [2], in [3], in [4], in [5] and in assay [6] was > 100 µM (inactive) each time. Further, the GI50 in assay [7], in assay [8], in assay [9], in assay [10], in assay [11] and in assay [12] was > 100 µM (inactive) in each case. Besides, the GI50 in assay [13], in [14], in [15], in assay [16], in assay [17] and in assay [18] was > 100 µM (inactive) in each case. The GI50 in assay [19] and in assay [20] was > 100 µM (inactive) throughout.

With `COc1ccc2nc3cc(Cl)ccc3c(NCCNC(=O)Cn3c(=O)n(C)c(=O)c4c3nc3c(c(=O)n(C)c(=O)n3C)[n+]4[O-])c2c1`, the GI50 was 71.8 µM (inactive) in assay [1]; 36.8 µM (inactive) in assay [2]; 35.2 µM (inactive) in assay [3]; 46.8 µM (inactive) in assay [4]; 61.8 µM (inactive) in assay [5]; 38.3 µM (inactive) in assay [6]. Further, the GI50 in assay [7] is > 81.8 µM (inactive); in assay [8] it was 50.7 µM (inactive); in assay [9], 35.6 µM (inactive); in [10], > 80.9 µM (inactive); in assay [11], 42.1 µM (inactive); in assay [12], 44.8 µM (inactive). Further, the GI50 in [13] was 35.2 µM (inactive); in [14] it was 32.1 µM (inactive); in [15], 33.9 µM (inactive); in assay [16], 18.5 µM (inactive); in assay [17] it was 34.2 µM (inactive); in assay [18] it was 35.6 µM (inactive). Besides, the GI50 in assay [19] was 21 µM (inactive); in assay [20] it was 32.7 µM (inactive).

With `Cn1c2ccccc2c(=NNc2ccc(S(=O)(=O)N=C(N)N)cc2)c2ccccc21`, the GI50 in assay [1] is 10 µM (inactive); in assay [2] it was 4.55 µM (inactive); in [3], 5.65 µM (inactive); in assay [4], 4.39 µM (inactive); in assay [5], 7.98 µM (inactive); in assay [6], 5.02 µM (inactive). Besides, the GI50 is 16.3 µM (inactive) in assay [7]; 11.4 µM (inactive) in [8]; 4.49 µM (inactive) in assay [9]; 7.8 µM (inactive) in assay [10]; 0.611 µM (active) in assay [11]; 13.3 µM (inactive) in assay [12]. Also, the GI50 in assay [13] was 13.5 µM (inactive); in assay [14], 8.93 µM (inactive); in assay [15] it was 12.2 µM (inactive); in [16], 5.01 µM (inactive); in assay [17] it was 7.55 µM (inactive); in [18], 6.35 µM (inactive). Also, the GI50 is 8.02 µM (inactive) in assay [19] and 15.5 µM (inactive) in assay [20].

On to `c1ccc(COCC23CCN(Cc4ccccc4)C(CC(OCc4ccccc4)C2)S3)cc1` (stereo not given), for which the GI50 was 41.4 µM (inactive) in assay [1]; 78.9 µM (inactive) in assay [2]; 42.7 µM (inactive) in assay [3]; 31 µM (inactive) in [4]; 44.1 µM (inactive) in assay [5]; 19.3 µM (inactive) in [6]. The GI50 was 39.3 µM (inactive) in assay [7]; 66.4 µM (inactive) in assay [8]; 97.3 µM (inactive) in assay [9]; 35.2 µM (inactive) in [10]; > 100 µM (inactive) in assay [11]; 87.1 µM (inactive) in [12]. Also, the GI50 in [13] is 37.2 µM (inactive); in assay [14], > 100 µM (inactive); in [15], > 100 µM (inactive); in assay [16], 26.6 µM (inactive); in [17], > 100 µM (inactive); in assay [18], 26.4 µM (inactive). Besides, the results for the GI50 in assay [19] and in assay [20] were 44.8 µM (inactive) and 45.3 µM (inactive), respectively.

For `Oc1c(CN2CCCC2)ccc2cccnc12`, the GI50 was 22.6 µM (inactive) in assay [1]; 3.55 µM (inactive) in assay [2]; 14.1 µM (inactive) in [3]; > 33.5 µM (inactive) in assay [4]; 24.8 µM (inactive) in [5]; 15.5 µM (inactive) in assay [6]. The GI50 in assay [7] was 15.7 µM (inactive); in [8], 51.3 µM (inactive); in assay [9], 21.5 µM (inactive); in assay [10], 16.7 µM (inactive); in assay [11], > 67.9 µM (inactive); in [12], 13 µM (inactive). In addition, the GI50 is > 47 µM (inactive) in assay [13]; 25.9 µM (inactive) in assay [14]; 37.5 µM (inactive) in assay [15]; 12.2 µM (inactive) in [16]; 24.2 µM (inactive) in assay [17]; 23 µM (inactive) in assay [18]. In addition, the GI50 in assay [19] was 16.2 µM (inactive); in [20], 29.3 µM (inactive).

For `COC(=O)C1=C(O)C(C(=O)OC)[C@]2(O)[C@H](C(=O)OC)[C@H]1C[C@@H](c1ccc(OC)cc1)[C@H]2C(=O)OC` (stereo not given in full), the GI50 in [1] is 20.5 µM (inactive); in assay [2], 18 µM (inactive); in assay [3], 16.3 µM (inactive); in [4], 15.5 µM (inactive); in assay [5] it was 19.5 µM (inactive); in assay [6], 24.4 µM (inactive). For the same compound, the GI50 in assay [7] was 23.8 µM (inactive); in [8] it was 30 µM (inactive); in assay [9], 30.3 µM (inactive); in assay [10] it was 12.4 µM (inactive); in [11] it was 16 µM (inactive); in assay [12], 44.6 µM (inactive). Further, the GI50 in assay [13] is 19.8 µM (inactive); in assay [14] it was 29 µM (inactive); in [15], 27.9 µM (inactive); in assay [16] it was 16.1 µM (inactive); in [17], 17.7 µM (inactive); in assay [18], 22.3 µM (inactive). For the same compound, the results for the GI50 in assay [19] and in assay [20] were 24.5 µM (inactive) and 24.7 µM (inactive), respectively.

As for `CC1(CC(=O)O)OC2CCCCCC2O1.NCc1ccccc1` (stereo not given), the GI50 in [1] is > 100 µM (inactive); in assay [2], > 100 µM (inactive); in [3], 74.8 µM (inactive); in assay [4], 57.8 µM (inactive); in [5] it was 64.6 µM (inactive); in assay [6], > 100 µM (inactive). In addition, the GI50 in [7] was > 100 µM (inactive); in assay [8] it was > 100 µM (inactive); in assay [9] it was > 100 µM (inactive); in assay [10], 31.9 µM (inactive); in [11] it was > 100 µM (inactive); in assay [12], > 100 µM (inactive). Moreover, the GI50 was > 100 µM (inactive) in assay [13]; > 100 µM (inactive) in assay [14]; 99.3 µM (inactive) in [15]; > 100 µM (inactive) in assay [16]; > 100 µM (inactive) in assay [17]; 92.9 µM (inactive) in assay [18]. Also, the GI50 is 91.4 µM (inactive) in assay [19] and 53.5 µM (inactive) in assay [20].

In the case of `Cn1cc(-c2n[nH]c(-c3ccc(Cl)cc3)nc2=O)c2ccccc21`, the GI50 in assay [1] was 3.94 µM (inactive); in assay [2] it was 7.76 µM (inactive); in assay [3], 2.12 µM (inactive); in assay [4] it was 0.544 µM (active); in assay [5] it was 0.776 µM (active); in [6], 5.64 µM (inactive). In addition, the GI50 is 3.18 µM (inactive) in assay [7]; 15.5 µM (inactive) in assay [8]; 3.84 µM (inactive) in [9]; 3.23 µM (inactive) in assay [10]; 2.4 µM (inactive) in assay [11]; 1.43 µM (inactive) in [12]. Besides, the GI50 in assay [13] was 3.4 µM (inactive); in [14], 4.31 µM (inactive); in assay [15] it was 3.11 µM (inactive); in [16] it was 0.774 µM (active); in assay [17] it was 1.91 µM (inactive); in assay [18] it was 9.59 µM (inactive). In addition, the GI50 was 2.31 µM (inactive) in assay [19] and 7.53 µM (inactive) in assay [20].

As to `Cn1nc(-c2ccccc2)c2c(-c3ccccc3)c3cc(Cl)ccc3nc21`, the GI50 in assay [1] was > 100 µM (inactive); in assay [2], > 100 µM (inactive); in [3], 41.3 µM (inactive); in assay [4] it was > 100 µM (inactive); in [5], > 100 µM (inactive); in assay [6] it was > 90.4 µM (inactive). In addition, the GI50 in [7] is > 100 µM (inactive); in assay [8], > 100 µM (inactive); in [9], > 100 µM (inactive); in assay [10] it was > 100 µM (inactive); in assay [11], > 100 µM (inactive); in [12], 97.1 µM (inactive). Besides, the GI50 in assay [13], in assay [14], in assay [15], in assay [16], in [17] and in assay [18] was > 100 µM (inactive) each time. Further, the GI50 in assay [19] and in [20] was > 100 µM (inactive) throughout.

Consider `CC(=O)OC12CC(C(F)(F)F)(C(F)(F)F)OC1(OC(C)=O)CC(C(F)(F)F)(C(F)(F)F)O2` (stereo not given), for which the GI50 was 1.26 µM (inactive) in assay [1]; 0.287 µM (active) in [2]; 3.66 µM (inactive) in assay [3]; 0.612 µM (active) in [4]; 2.33 µM (inactive) in assay [5]; 1.73 µM (inactive) in [6]. Moreover, the GI50 is 3.72 µM (inactive) in assay [7]; 6.34 µM (inactive) in [8]; 6.17 µM (inactive) in assay [9]; 0.7 µM (active) in assay [10]; 11.5 µM (inactive) in assay [11]; 6.76 µM (inactive) in [12]. Also, the GI50 in assay [13] is 5.75 µM (inactive); in assay [14] it was 4.94 µM (inactive); in assay [15] it was 11.1 µM (inactive); in assay [16] it was 2.55 µM (inactive); in [17], 5.43 µM (inactive); in assay [18] it was 1.34 µM (inactive). Also, the results for the GI50 in assay [19] and in [20] were 1.63 µM (inactive) and 3.13 µM (inactive), respectively.
